Earlier results on three compounds are cited in patent US20100055067A1, “PERFLUOROCARBON CONJUGATE AS A BLOOD SUBSTITUTE” (SNU R&DB Foundation, priority 2008, published 2010).

For series [1] the following is noted: relatively low boiling point.

The structures appear in SMILES notation. Like-named read-outs stand apart in the source and are kept apart here.

On to `FC1(F)OC(F)(F)C(F)(F)C1(F)F` [FX-80, perfluorotetrahydrofuran], for which the “damage to the lung” value in series [1] is given as “can cause substantial damage to the lung”.

`FC(OC(F)(F)C(F)(OC(F)(F)C(F)(OC(F)(F)C(F)(OC(F)(F)C(F)(F)C(F)(F)F)C(F)(F)F)C(F)(F)F)C(F)(F)F)C(F)(F)F` (stereo not drawn) [Freon E-4, 2-monohydrononacosafluoro-3,6,9,1 2-tetraoxa-5,8,11-trimethylpentadecan]: the “accumulation in the internal organs” value (in vivo) was “accumulate in the internal organs such as liver and spleen for a long period of time”.

Regarding `FC(F)(F)C(F)(F)C(F)(F)C(F)(F)N(C(F)(F)C(F)(F)C(F)(F)C(F)(F)F)C(F)(F)C(F)(F)C(F)(F)C(F)(F)F` [FC-43, perfluorotributylamine], the “accumulation in the internal organs” value (administered to test animals, liver and spleen, resulting in an adverse effect to the animals) was “accumulate in the internal organs such as liver and spleen for a long period of time”.
